Results published in patent publication US8436003B2, “Substituted imidazo- and triazolopyrimidines, imidazo- and pyrazolopyrazines and imidazotriazines” (Bayer Intellectual Property GmbH, priority 2008, dated 2013).

These compounds were tested against T1, GSK3β (Homo sapiens, UniProt P49841) (assay: In vitro biochemical GSK3β inhibition assay (coupled pyruvate kinase/lactate dehydrogenase, NADH fluorescence)). Conditions: 5 nM GSK3β, 40 μM GSK3β substrate GSM, 50 μM ATP, 30° C. for 2 hours.
T1 construct: purchased Upstate 14-306
Procedure: The inhibitory activity of active substances is determined in a biochemical assay. The ingredients required for this purpose are mixed in a black 384-well microtitre plate with transparent base (from Greiner, catalogue number 781092). The requirements in this connection for each well of the 384-well microtitre plate are 5 nM GSK3β (from Upstate, catalogue number 14-306), 40 μM GSK3β substrate GSM (sequence H-RRRPASVPPSPSLSRHS-(pS)-HQRR, from Upstate, catalogue number 2-533), 30 μM nicotinamide adenine dinucleotide NADH (Roche Diagnostics, catalogue number 10107735), 50 μM adenosine triphosphate ATP (from Sigma, catalogue number A7966), 2 mM phosphoenolpyruvate (from Roche, catalogue number 128112), and also about 1 U/ml of pyruvate kinase and about 1 U/ml of lactate dehydrogenase, which are present together in a stock formulation (from Roche, catalogue number 10737291001, suspension with about 450 U/ml of pyruvate kinase activity, about 450 U/ml of lactate dehydrogenase activity in […] ammonium sulphate solution pH 6), where 1 unit pyruvate kinase converts, at pH 7.6 and 37° C., 1 μmol of phosphoenolpyruvate into pyruvate per minute, and where 1 unit of lactate dehydrogenase reduces, at pH 7.5 and 37° C., 1 μmol of pyruvate to lactate per minute. The required reaction buffer in which the biochemical reaction takes place consists of 50 mM Trizma hydrochloride Tris-HCl pH: 7.5 (from Sigma, catalogue number T3253), 5 mM magnesium chloride MgCl2 (from Sigma, catalogue number M8266), 0.2 mM DL-dithiothreitol DTT (from Sigma, catalogue number D9779), 2 mM ethylenediaminetetraacetic acid EDTA (from Sigma, catalogue number E6758), 0.01% Triton X-100 (from Sigma, catalogue number T8787) and 0.05% bovine serum albumin BSA (from Sigma, catalogue number B4287).
Active substances are dissolved in dimethyl sulfoxide DMSO (from Sigma, catalog number D8418) in a concentration of 10 mM. Active substances are added in serial concentrations of 10 μM, 1 μM, 0.1 μM, 0.01 μM, 0.001 μM, 0.0001 μM, 0.00001 μM, 0.000001 μM to the mixtures of the biochemical reaction. As control, dimethyl sulfoxide is added instead of substance in a final concentration of 0.1%.
The reaction is incubated at 30° C. for 2 hours and then the resulting fluorescence is measured in a Tecan Safire-XFLUOR4 instrument, version V4.50 (serial number 12901300283) with the specifications: measurement mode—fluorescence measured from below, extinction wavelength 340 nm, emission wavelength 465 nm, slit width extinction 5 nm, slit width emission 5 nm, gain mode 120, delay 0 μs, number of light flashes per measurement 3, and an integration time of 40 μs.
The activity of the active substances is calculated in relation to these 0% and 100%.

T1 sequence (P49841 whole entry): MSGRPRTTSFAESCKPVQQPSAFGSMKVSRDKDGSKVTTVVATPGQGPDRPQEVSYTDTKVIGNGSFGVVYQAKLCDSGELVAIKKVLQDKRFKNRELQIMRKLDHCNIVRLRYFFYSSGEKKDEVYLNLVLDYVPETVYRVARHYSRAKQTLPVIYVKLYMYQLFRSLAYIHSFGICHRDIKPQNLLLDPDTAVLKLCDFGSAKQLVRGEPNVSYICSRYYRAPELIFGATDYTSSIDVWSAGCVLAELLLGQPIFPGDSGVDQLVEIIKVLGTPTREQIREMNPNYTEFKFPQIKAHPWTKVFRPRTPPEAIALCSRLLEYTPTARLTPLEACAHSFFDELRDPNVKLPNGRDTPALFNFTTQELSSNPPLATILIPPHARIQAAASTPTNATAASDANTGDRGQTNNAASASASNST

Compound	IC50
CC(C)N1CCC(c2nc3cc(-c4ccc(Cl)cc4Cl)nc(NCCNc4ccc(C(=O)C(F)(F)F)c(N)n4)n3n2)CC1 [Example 1, 1-(2-Amino-6-{[2-({7-(2,4-dichlorophenyl)-2-[1-(propan-2-yl)piperidin-4-yl][1,2,4]triazolo[1,5-c]-pyrimidin-5-yl}amino)ethyl]amino}pyridin-3-yl)-2,2,2-trifluoroethanone]	15 nM
CC(C)N1CCC(c2nc3cc(-c4ccc(Cl)cc4Cl)nc(N4CCCC(Nc5ccc(C(=O)C(F)(F)F)c(N)n5)C4)n3n2)CC1 (stereo not drawn) [Example 5, 1-{2-Amino-6-[(1-{7-(2,4-dichlorophenyl)-2-[1-(propan-2-yl)piperidin-4-yl][1,2,4]triazolo[1,5-c]-pyrimidin-5-yl}piperidin-3-yl)amino]pyridin-3-yl}-2,2,2-trifluoroethanone]	10 nM
CC(C)N1CCC(c2nc3cc(-c4ccc(F)cc4Cl)nc(N4CCCC(Nc5ccc(C(=O)C(F)(F)F)c(N)n5)C4)n3n2)CC1 (racemic) [Example 13, 1-{2-Amino-6-[(1-{7-(2-chloro-4-fluorophenyl)-2-[1-(propan-2-yl)piperidin-4-yl][1,2,4]-triazolo[1,5-c]pyrimidin-5-yl}piperidin-3-yl)amino]pyridin-3-yl}-2,2,2-trifluoroethanone]	4 nM

Continued, values first:

IC50	Compound
9 nM	Nc1nc(NCCNc2nc(-c3ccc(Cl)cc3Cl)cc3nc(C4CCN(CC(=O)O)CC4)nn23)ccc1C(=O)C(F)(F)F [Example 23, (4-{5-[(2-{[6-Amino-5-(trifluoroacetyl)pyridin-2-yl]amino}ethyl)amino]-7-(2,4-dichlorophenyl)-[1,2,4]triazolo[1,5-c]pyrimidin-2-yl}piperidin-1-yl)acetic acid]
20 nM	Nc1nc(NCCNc2nc(-c3ccc(Cl)cc3Cl)cc3nc(C4CCN(CC5CC5)CC4)nn23)ccc1C(=O)C(F)(F)F [Example 21, 1-(2-Amino-6-{[2-({2-[1-(cyclopropylmethyl)piperidin-4-yl]-7-(2,4-dichlorophenyl)-[1,2,4]triazolo[1,5-c]pyrimidin-5-yl}amino)ethyl]amino}pyridin-3-yl)-2,2,2-trifluoroethanone]
2 nM	CC(C)N1CCC(c2nc3cc(-c4ccc(F)cc4Cl)nc(N4CCCC(Nc5ccc(C(=O)C(F)(F)F)c(N)n5)C4)n3n2)CC1 (racemic) [Example Ent-A-13, 1-{2-Amino-6-[(1-{7-(2-chloro-4-fluorophenyl)-2-[1-(propan-2-yl)piperidin-4-yl][1,2,4]-triazolo[1,5-c]pyrimidin-5-yl}piperidin-3-yl)amino]pyridin-3-yl}-2,2,2-trifluoroethanone]
